Measurements taken from patent US20250332173A1, “COMPOUNDS AND METHODS FOR MODULATING NUCLEIC ACID SPLICING” (REMIX THERAPEUTICS INC., priority 2021, published 2025).
Read-outs that look alike come from different tables or passages of the source.

Tests used:
HTT mRNA = assay: RT-qPCR splicing assay, HTT canonical junction (CJ) and alternative junction (AJ) mRNA; type: cell-based, human; conditions: Homo sapiens; for AC50: increase in HTT alternative junction (AJ) mRNA, read-out: HTT AJ AC50
How it was run: (§1)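 Read-out is one-step RT-qPCR on cell lysates detecting the exon-exon junction of each isoform, normalized to a housekeeping gene (PPIA in A673, GAPDH or GUSB in K562).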

MYB mRNA = assay: RT-qPCR splicing assay, MYB canonical junction (CJ) and alternative junction (AJ) mRNA; type: cell-based, human; conditions: Homo sapiens; for AC50: increase in MYB alternative junction (AJ) mRNA, read-out: MYB AJ AC50
How it was run: as §1

[1] = test system: K562 (human chronic myelogenous leukemia) cells; assay: Cell Titer Glo 2.0 cell viability assay; type: cell-based; conditions: Homo sapiens, K562, 72 h, K562 cells, 72 hours, Cell Titer Glo 2.0; read-out: K562 GI50
Procedure: Compounds described herein were screened for toxicity in K562 (human chronic myelogenous leukemia) cells using a Cell Titer Glo 2.0 assay.
Cells were plated at 500 cells/well (K562 cells) in 45 μL of IMDM supplemented with 1000 FBS in a 384-well opaque plate. Wells containing only medium were used as a blank control. Test compounds (e.g., compounds ofFormula (I), (II), (III), (IV), (V), (VI), (VII), (VIII), and (IX)) were first serially diluted in DMSO then diluted 1:100 with IMDM+10% FBS. The final concentration of DMSO was 0.1% in each well. The cells were incubated for 72 hours at 37° C. and 500 CO2 before assaying with Cell Titer Glo 2.0 reagent.

[2] = decrease in HTT canonical junction (CJ) mRNA, RT-qPCR, read-out: HTT CJ IC50
[3] = Table 5 panel, canonical junction qPCR, compound concentration having 50% response in CJ decrease, read-out: HTT IC50 (decrease in CJ mRNA levels)
[4] = Table 5 panel, canonical junction qPCR, compound concentration having 50% response in CJ decrease, read-out: MYB IC50 (decrease in CJ mRNA levels)
[5] = decrease in MYB canonical junction (CJ) mRNA, RT-qPCR, read-out: MYB CJ IC50

Row | SMILES | IC50 (HTT mRNA; [2]) | AC50 (HTT mRNA; RT-qPCR) | IC50 (HTT mRNA; [3]) | IC50 (MYB mRNA; [4]) | IC50 (MYB mRNA; [5]) | AC50 (MYB mRNA; RT-qPCR) | GI50 [1]
1 | Cc1cn2cc(-c3cc(O)c4c(=O)n(C5CCNC5)ccc4c3)cc(C#N)c2n1 (stereo not drawn) [Compound 433, 6-(8-hydroxy-1-oxo-2-(pyrrolidin-3-yl)-1,2-dihydroisoquinolin-6-yl)-2-methylimidazo[1,2-a]pyridine-8-carbonitrile] | > 10000 nM | > 10000 nM | > 10000 nM | < 100 nM | 1000 to 10000 nM | 100 to 1000 nM | 1000 to 10000 nM
2 | Cc1cn2cc(-c3ccc4c(=O)n([C@@H]5CCCNC5)ccc4c3)cc(F)c2n1 (single isomer, unassigned) [Compound 403] | 1000 to 10000 nM | 1000 to 10000 nM | 1000 to 10000 nM | 1000 to 10000 nM | 100 to 1000 nM | 1000 to 10000 nM | 1000 to 10000 nM
3 | Cn1cc2nc(-c3ccc4c(=O)n(C5CCNC6(CC6)C5)ncc4c3)ccc2n1 (stereo not drawn) [Compound 511] | 100 to 1000 nM | 100 to 1000 nM | 100 to 1000 nM | 100 to 1000 nM | 100 to 1000 nM | 100 to 1000 nM | 1000 to 10000 nM
4 | Cn1cc2cc(-c3cc(F)c4c(=O)n(C5CCNC6(CC6)C5)ccc4c3)c(O)c(F)c2n1 (stereo not drawn) [Compound 420, 2-{4-azaspiro[2.5]octan-7-yl}-8-fluoro-6-(7-fluoro-6-hydroxy-2-methylindazol-5-yl)isoquinolin-1-one] | 1000 to 10000 nM | 1000 to 10000 nM | 1000 to 10000 nM | 100 to 1000 nM | 100 to 1000 nM | 100 to 1000 nM | 1000 to 10000 nM
5 | Cc1cn2cc(-c3cc(S(C)(=O)=O)c4c(=O)n(C5CCNCC5)ccc4c3)cc(F)c2n1 [Compound 409, 6-(8-fluoro-2-methylimidazo[1,2-a]pyridin-6-yl)-8-(methylsulfonyl)-2-(piperidin-4-yl)isoquinolin-1(2H)-one] | > 10000 nM | > 10000 nM | > 10000 nM | > 10000 nM | > 10000 nM | > 10000 nM | > 10000 nM
6 | Cc1cn2nc(-c3cc(O)c4c(=O)n(C5CCNCC5)ccc4c3)cc(C)c2n1 [Compound 391, 6-(2,8-dimethylimidazo[1,2-b]pyridazin-6-yl)-8-hydroxy-2-(piperidin-4-yl)isoquinolin-1(2H)-one] | < 100 nM | < 100 nM | < 100 nM | < 100 nM | < 100 nM | < 100 nM | < 100 nM
7 | Cn1cc2c(n1)CCN(c1ccc3c(=O)n(C4CCNCC4)ccc3c1)C2 [Compound 509, 6-{2-methyl-4H,6H,7H-pyrazolo[4,3-c]pyridin-5-yl}-2-(piperidin-4-yl)isoquinolin-1-one] | > 10000 nM | > 10000 nM | > 10000 nM | > 10000 nM | > 10000 nM | > 10000 nM | > 10000 nM
8 | Cc1cn2nc(-c3ccc4c(=O)n(C5CCCNC5)ccc4c3)cc(C)c2n1 (stereo in doubt) [Compound 411, 6-{2,8-dimethylimidazo[1,2-b]pyridazin-6-yl}-2-[(3R)-piperidin-3-yl]isoquinolin-1-one] | 1000 to 10000 nM | 1000 to 10000 nM | 1000 to 10000 nM | 1000 to 10000 nM | 1000 to 10000 nM | 1000 to 10000 nM | 1000 to 10000 nM
9 | Cc1cn2nc(-c3cc(F)c4c(=O)n(C5CCNC6(CC6)C5)ccc4c3)cc(C)c2n1 (stereo not drawn) [Compound 380, 6-(2,8-dimethylimidazo[1,2-b]pyridazin-6-yl)-8-fluoro-2-(4-azaspiro[2.5]octan-7-yl)isoquinolin-1(2H)-one] | < 100 nM | < 100 nM | < 100 nM | < 100 nM | < 100 nM | < 100 nM | 100 to 1000 nM
10 | Cc1cn2cc(-c3cc(F)c4c(=O)n(C5CCNCC5)cc(C)c4c3)cc(F)c2n1 [Compound 461, 8-fluoro-6-{8-fluoro-2-methylimidazo[1,2-a]pyridin-6-yl}-4-methyl-2-(piperidin-4-yl)isoquinolin-1-one] | 100 to 1000 nM | 100 to 1000 nM | 100 to 1000 nM | < 100 nM | < 100 nM | < 100 nM | < 100 nM
11 | Cc1cn2nc(-c3cc(F)c4c(=O)n(C5CCNC5)ccc4c3)cc(C)c2n1 (stereo in doubt) [Compound 392, (S)-6-(2,8-dimethylimidazo[1,2-b]pyridazin-6-yl)-8-fluoro-2-(pyrrolidin-3-yl)isoquinolin-1(2H)-one] | 1000 to 10000 nM | 1000 to 10000 nM | 1000 to 10000 nM | < 100 nM | < 100 nM | < 100 nM | 1000 to 10000 nM
12 | Cc1cn2cc(-c3cc(N)c4c(=O)n(C5CCNCC5)cnc4c3)cc(C#N)c2n1 [Compound 364, 6-[5-amino-4-oxo-3-(piperidin-4-yl)quinazolin-7-yl]-2-methylimidazo[1,2-a]pyridine-8-carbonitrile] | > 10000 nM | > 10000 nM | > 10000 nM | > 10000 nM | > 10000 nM | > 10000 nM | > 10000 nM
13 | Cc1cn2cc(-c3cc(F)c4c(=O)n(C5CCNC6(CC6)C5)ccc4c3)ncc2n1 (stereo not drawn) [Compound 428, 8-fluoro-6-(2-methylimidazo[1,2-a]pyrazin-6-yl)-2-(4-azaspiro[2.5]octan-7-yl)isoquinolin-1(2H)-one] | 1000 to 10000 nM | 1000 to 10000 nM | 1000 to 10000 nM | 100 to 1000 nM | 100 to 1000 nM | 100 to 1000 nM | 1000 to 10000 nM
14 | Cc1cn2nc(-c3ccc4c(=O)n([C@H]5CCNC6(CC6)C5)ccc4c3)cc(C)c2n1 [Compound 445] | < 100 nM | < 100 nM | < 100 nM | < 100 nM | < 100 nM | < 100 nM | < 100 nM
15 | CN1C2C=C(c3ccc4c(=O)n(-c5ccc6nn(C)cc6c5)cnc4c3)CC1CC2 (stereo not drawn) [Compound 161] | > 10000 nM | > 10000 nM | > 10000 nM | > 10000 nM | > 10000 nM | > 10000 nM | > 10000 nM
16 | Cc1cn2c(n1)CCC(c1ccc3c(=O)n(C4CCNCC4)ccc3c1)C2 (stereo not drawn) [Compound 453, 6-{2-methyl-5H,6H,7H,8H-imidazo[1,2-a]pyridin-6-yl}-2-(piperidin-4-yl)isoquinolin-1-one] | > 10000 nM | > 10000 nM | > 10000 nM | > 10000 nM | > 10000 nM | > 10000 nM | > 10000 nM
17 | Cc1cn2nc(-c3cc(C)c4c(=O)n(C5CCNC6(CC6)C5)ncc4c3)cc(C)c2n1 (stereo not drawn) [Compound 423, 6-(2,8-dimethylimidazo[1,2-b]pyridazin-6-yl)-8-methyl-2-(4-azaspiro[2.5]octan-7-yl)phthalazin-1(2H)-one] | < 100 nM | < 100 nM | < 100 nM | < 100 nM | < 100 nM | < 100 nM | 100 to 1000 nM
18 | Cc1cc(-c2cc(F)c3c(=O)n(C4CCNC5(CC5)C4)ccc3c2)cc2c1nc(C)n2C (stereo not drawn) [Compound 429] | > 10000 nM | > 10000 nM | > 10000 nM | > 10000 nM | > 10000 nM | > 10000 nM | 1000 to 10000 nM
